Data set [1] has as its system HepG2 hepatocellular carcinoma cells. Kind of data set: Cell Titer Blue viability, HepG2. The data set is classed as cell-based, human. Particulars: read-out: IC50 HepG2. A general note: Resazurin is reduced to fluorescent resorufin, in cell work by metabolically active cells.
For data set [2], the system named is H2030 lung cancer cells (KRAS G12C). Kind of data set: Cell Titer Blue viability, H2030. The data set is classed as cell-based, human. Particulars: read-out: IC50 H2030.
Data set [3] relates to PC-9 lung cancer cells (EGFR exon 19 del). Kind of data set: Cell Titer Blue viability, PC-9. Particulars: read-out: IC50 PC-9. The data set is classed as cell-based, human.
The test system of data set [4] is HCC78 cells (SLC34A2-ROS fusion). Kind of data set: Cell Titer Blue viability, HCC78. The data set is classed as cell-based, human.
Data set [5] can be described thus: Pharmacokinetic study, plasma levels in mice. The data set is classed as in vivo. Particulars: for plasma level at 2 hours after dosing: mice, oral; for bioavailability in vivo / half-life in vivo: pharmacokinetic study.
The test system of data set [6] is H3122 lung cancer cells harboring EML4-ALK E13;A20 (variant 1). Kind of data set: Cell Titer Blue viability, H3122. The data set is classed as cell-based, human. As to conditions: for fold more potent than PF-1066 in H3122: growth inhibition.
Data set [7] deals with H2228 lung cancer cells (EML4-ALK E6a/b;A20). Kind of data set: Cell Titer Blue viability, H2228. The data set is classed as cell-based, human. Particulars: for pIC50: read-out: IC50 H2228, 72h, Cell titer blue.
Data set [8] deals with HCC78 cells (SLC34A2-ROS fusion). As to conditions: cited from earlier work.
Data set [9] deals with SUDHL-1 lymphoma cells (NPM-ALK). Kind of data set: Cell Titer Blue viability, SUDHL-1. The data set is classed as cell-based, human. As to conditions: read-out: IC50 SUDHL-1, 72h.
Data set [10] concerns SY5Y neuroblastoma cells (ALK F1174L). Kind of data set: Cell Titer Blue viability, SY5Y. Particulars: read-out: IC50 SY5Y, 72h. The data set is classed as cell-based, human.
Data set [11] concerns MKN-45 gastric carcinoma cells (MET dependent). Kind of data set: Cell Titer Blue viability, MKN-45. The data set is classed as cell-based, human. As to conditions: read-out: IC50 MKN-45, 72h.
For another data set, the system named is H3122 cells. Kind of data set: Annexin V / propidium iodide apoptosis assay. The data set is classed as cell-based, human. Particulars: 72h, increasing concentrations.
For the next data set, the target named is EML4-ALK E13;A20 (Homo sapiens, UniProt Q9HC35+Q9UM73). Kind of data set: Surrogate kinase assay. The data set is classed as cell-based. As to conditions: 2 hours treatment, immunoblot, compared with PF-1066. (In western blotting, separated proteins are transferred to a membrane and probed.)
Data set [12] concerns EML4-ALK E13;A20, EML4-ALK E20;A20, EML4-ALK E6b;A20 and KIF5B-ALK. Kind of data set: Surrogate kinase assays on four ALK variants in 293 cells. The data set is classed as cell-based.
Another data set deals with H3122 xenografts. Kind of data set: H3122 xenograft study in nude mice. The data set is classed as in vivo. Particulars: for growth of H3122 xenograft tumors vs vehicle: nude mice, oral gavage; for mouse weight: xenograft experiment.
A short description of data set [13]: Blood-brain-barrier penetration in C57BL/6J mice. The data set is classed as in vivo. As to conditions: for brain penetration (brain tissue concentration as % of plasma level): C57BL/6J mice, 2 hours after dosing.
The next data set has as its target ROS1 (Homo sapiens, UniProt P08922). Kind of data set: Ambit screen, ROS1. As to conditions: read-out: IC50 ROS1 in vitro (Ambit screen); racemic forms.
A further data set has as its target ALK (Homo sapiens, UniProt Q9UM73). Kind of data set: Ambit KINOMEscan dose-response profiling, ALK. As to conditions: for pIC50: read-out: IC50 ALK (Ambit assays), Biochemical potency, Kinomescan.
Another data set deals with MET (Homo sapiens, UniProt P08581). Kind of data set: Ambit KINOMEscan dose-response profiling, MET. Particulars: read-out: IC50 MET (Ambit assays), Biochemical potency.
MET, sequence (P08581 25-1390): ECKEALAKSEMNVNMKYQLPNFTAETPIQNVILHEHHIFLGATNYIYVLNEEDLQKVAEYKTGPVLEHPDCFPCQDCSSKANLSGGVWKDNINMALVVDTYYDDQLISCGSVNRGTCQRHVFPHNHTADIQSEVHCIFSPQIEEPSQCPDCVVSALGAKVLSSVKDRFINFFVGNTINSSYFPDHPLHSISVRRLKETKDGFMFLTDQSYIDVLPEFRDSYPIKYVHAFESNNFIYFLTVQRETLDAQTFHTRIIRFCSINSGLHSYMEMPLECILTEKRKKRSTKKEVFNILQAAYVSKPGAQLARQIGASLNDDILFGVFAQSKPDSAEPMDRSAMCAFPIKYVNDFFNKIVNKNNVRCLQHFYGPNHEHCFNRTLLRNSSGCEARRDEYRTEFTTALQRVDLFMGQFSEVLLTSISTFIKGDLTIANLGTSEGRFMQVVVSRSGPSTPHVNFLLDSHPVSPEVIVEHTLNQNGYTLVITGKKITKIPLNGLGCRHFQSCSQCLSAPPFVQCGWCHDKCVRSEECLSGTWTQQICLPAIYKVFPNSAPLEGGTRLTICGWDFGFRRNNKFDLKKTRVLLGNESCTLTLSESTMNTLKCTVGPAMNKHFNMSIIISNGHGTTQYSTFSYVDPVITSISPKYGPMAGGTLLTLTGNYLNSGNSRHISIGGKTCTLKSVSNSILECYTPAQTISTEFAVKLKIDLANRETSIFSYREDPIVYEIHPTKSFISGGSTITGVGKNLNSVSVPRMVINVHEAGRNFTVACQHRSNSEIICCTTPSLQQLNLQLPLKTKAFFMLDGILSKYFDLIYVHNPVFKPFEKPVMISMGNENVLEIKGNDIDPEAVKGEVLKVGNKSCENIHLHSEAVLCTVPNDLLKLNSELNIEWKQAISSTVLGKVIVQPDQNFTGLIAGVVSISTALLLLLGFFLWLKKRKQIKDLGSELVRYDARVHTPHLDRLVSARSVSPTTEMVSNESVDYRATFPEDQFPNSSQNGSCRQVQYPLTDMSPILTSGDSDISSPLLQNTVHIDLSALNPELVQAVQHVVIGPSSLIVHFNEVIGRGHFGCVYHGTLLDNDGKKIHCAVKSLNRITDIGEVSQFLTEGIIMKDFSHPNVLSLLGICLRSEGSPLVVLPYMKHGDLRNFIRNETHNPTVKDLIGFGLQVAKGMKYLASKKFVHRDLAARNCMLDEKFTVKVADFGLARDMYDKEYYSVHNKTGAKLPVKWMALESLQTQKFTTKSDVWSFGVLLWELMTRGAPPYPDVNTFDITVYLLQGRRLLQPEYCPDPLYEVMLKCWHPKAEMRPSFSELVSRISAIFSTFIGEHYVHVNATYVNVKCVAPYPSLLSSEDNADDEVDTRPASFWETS
Data set [14] in a line: 10-day repeated oral toxicity study in SD rats. Particulars: for no significant toxicity (NST) level: 10 days repeated oral administration.
In data set [15] the test system is Ba/F3 cells expressing EML4-ALK E13;A20 WT. Kind of data set: Cell Titer Blue viability, Ba/F3 EML4-ALK WT. The data set is classed as cell-based.
For data set [16], the system named is Ba/F3 cells expressing EML4-ALK E13;A20 L1196M. Kind of data set: Cell Titer Blue viability, Ba/F3 EML4-ALK L1196M. The data set is classed as cell-based. Particulars: 72h.
For data set [17], the system named is Ba/F3 cells expressing EML4-ALK E13;A20 C1156Y. Kind of data set: Cell Titer Blue viability, Ba/F3 EML4-ALK C1156Y. The data set is classed as cell-based. As to conditions: 72h.
Another data set addresses EML4-ALK E13;A20 L1196M (Homo sapiens, UniProt Q9HC35+Q9UM73, L1196M). Kind of data set: Surrogate kinase assay, L1196M mutant in 293 cells. The data set is classed as cell-based. As to conditions: 2 hours, at higher concentrations than for wild-type fusion.
Another data set has as its target EML4-ALK E13;A20 C1156Y (Homo sapiens, UniProt Q9HC35+Q9UM73, C1156Y). Kind of data set: Surrogate kinase assay, C1156Y mutant in 293 cells. The data set is classed as cell-based. Particulars: 2 hours, at higher concentrations than for wild-type fusion.
The subject of data set [18] is EML4-ALK E13;A20 in H3122 lung cancer cells. Kind of data set: Endogenous ALK phosphorylation immunoblot in H3122. The data set is classed as cell-based, human. Particulars: 1 hour treatment, compared to PF-1066.
The mark [19] stands for this setting: read-out: IC50 HCC78, 72h, Cell titer blue.
[20] abbreviates: read-out: IC50 H3122, 72h, Cell titer blue.
Where [21] appears, read: 72 hours, Chou-Talalay and Mix-Low methods.

pIC50: −log10 of the molar value. Where two headings read alike, the source gives them in different places.

ALK, sequence (Q9UM73 19-1620): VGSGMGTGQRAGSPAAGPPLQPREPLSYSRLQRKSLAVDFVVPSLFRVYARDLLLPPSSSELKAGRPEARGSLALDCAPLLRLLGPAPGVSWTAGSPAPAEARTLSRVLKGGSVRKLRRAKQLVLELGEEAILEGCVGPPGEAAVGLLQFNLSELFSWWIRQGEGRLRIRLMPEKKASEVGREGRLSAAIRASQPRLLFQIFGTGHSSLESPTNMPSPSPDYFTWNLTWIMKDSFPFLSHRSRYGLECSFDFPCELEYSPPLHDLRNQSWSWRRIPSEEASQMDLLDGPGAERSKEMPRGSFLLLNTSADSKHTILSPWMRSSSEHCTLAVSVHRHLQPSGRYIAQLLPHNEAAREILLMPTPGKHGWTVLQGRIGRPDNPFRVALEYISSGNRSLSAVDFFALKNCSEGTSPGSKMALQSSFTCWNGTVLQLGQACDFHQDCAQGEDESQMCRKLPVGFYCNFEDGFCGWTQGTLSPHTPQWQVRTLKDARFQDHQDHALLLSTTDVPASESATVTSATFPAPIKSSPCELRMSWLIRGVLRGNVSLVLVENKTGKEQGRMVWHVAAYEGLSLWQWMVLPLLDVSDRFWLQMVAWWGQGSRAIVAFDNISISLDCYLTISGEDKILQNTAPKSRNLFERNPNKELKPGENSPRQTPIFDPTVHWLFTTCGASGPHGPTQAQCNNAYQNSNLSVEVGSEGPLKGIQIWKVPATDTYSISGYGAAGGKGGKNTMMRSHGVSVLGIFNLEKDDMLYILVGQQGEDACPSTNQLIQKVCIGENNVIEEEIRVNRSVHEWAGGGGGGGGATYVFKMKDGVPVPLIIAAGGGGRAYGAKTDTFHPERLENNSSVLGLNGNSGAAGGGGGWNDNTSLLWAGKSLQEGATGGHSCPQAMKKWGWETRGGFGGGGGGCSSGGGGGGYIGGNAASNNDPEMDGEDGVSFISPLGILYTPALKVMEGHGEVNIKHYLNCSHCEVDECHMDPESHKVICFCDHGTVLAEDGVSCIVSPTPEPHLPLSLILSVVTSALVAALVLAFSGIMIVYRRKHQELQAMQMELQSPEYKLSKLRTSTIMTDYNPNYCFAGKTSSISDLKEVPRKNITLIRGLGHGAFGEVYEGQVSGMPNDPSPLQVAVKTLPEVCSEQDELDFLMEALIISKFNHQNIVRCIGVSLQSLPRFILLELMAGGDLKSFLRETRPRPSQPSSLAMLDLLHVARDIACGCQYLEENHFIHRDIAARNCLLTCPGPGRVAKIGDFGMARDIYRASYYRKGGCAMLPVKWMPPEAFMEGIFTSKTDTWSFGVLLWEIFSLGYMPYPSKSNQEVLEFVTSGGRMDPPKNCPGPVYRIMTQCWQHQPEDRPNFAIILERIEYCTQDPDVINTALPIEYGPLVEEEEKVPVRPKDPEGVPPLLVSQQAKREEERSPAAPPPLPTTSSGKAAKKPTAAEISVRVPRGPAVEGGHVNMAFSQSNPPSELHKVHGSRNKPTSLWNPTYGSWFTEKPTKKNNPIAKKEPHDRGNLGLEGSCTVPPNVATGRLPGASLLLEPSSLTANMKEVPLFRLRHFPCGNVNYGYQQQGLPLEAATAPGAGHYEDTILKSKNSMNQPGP

For the compound `C[C@@H](Oc1cc(-c2cnn(C3CCNCC3)c2)cnc1N)c1c(Cl)ccc(F)c1Cl` [PF-1066, crizotinib, reference compound], the pIC50 is 4.84 in data set [1] (Homo sapiens, HepG2, 72 h); 5.61 in data set [2] (Homo sapiens, NCI-H2030, 72 h); 5.78 in data set [3] (Homo sapiens, 72 h); 5.85 in data set [4] (Homo sapiens, HCC78, 72 h, read-out: IC50 HCC78, 72h, Cell titer blue); 5.87 in data set [4] (setting [19]). Also, in [5] (athymic nude (nu/nu), mouse, plasma, po, 50 mg/kg), the concentration at 2 h came out at 10.2 µM.

With `CO[C@H]1C[C@@H]2CC[C@@H](C)[C@@](O)(O2)C(=O)C(=O)N2CCCC[C@H]2C(=O)O[C@H]([C@H](C)C[C@@H]2CC[C@@H](O)[C@H](OC)C2)CC(=O)[C@H](C)/C=C(\C)[C@@H](O)[C@@H](OC)C(=O)[C@H](C)C[C@H](C)/C=C/C=C/C=C/1C` [Rapamycin, rapamycin, reference compound], in [6] (72 hours), the “proliferation of H3122 cells, rapamycin alone” value is listed as “small but reproducible decrease”. For the same compound, the “proliferation of H2228 cells, rapamycin alone” value in data set [7] (72 hours) is given as “small but reproducible decrease”.

For `COc1cc(N2CCC(N3CCN(C)CC3)CC2)ccc1Nc1ncc(Cl)c(Nc2ccccc2S(=O)(=O)C(C)C)n1` [TAE-684, reference compound], in data set [6] (Homo sapiens, NCI-H3122, 72 h, read-out: IC50 H3122 cell growth), the pIC50 was 8.30. The “sensitivity of HCC78 cells” value in data set [8] is reported as “moderate sensitivity”.

For `C[C@@H](Oc1cc(C(=O)Nc2ccc(C(=O)N3CCN(C)CC3)cc2)nnc1N)c1c(Cl)ccc(F)c1Cl` [X-376], the “fold more potent than PF-1066 in H3122” value in data set [6] turned out to be 3 fold. Also, the pIC50 in data set [6] (setting [20]) is 7.11; in data set [7] it was 7.24; in data set [9], 7.49; in [10] it was 6.85; in data set [11], 6.82; in data set [1] (72h, Cell titer blue), 4.82. Moreover, the pIC50 in data set [2] (72h, Cell titer blue) is 5.85; in data set [3] (72h, Cell titer blue), 5.51; in data set [4] (setting [19]) it was below 5.52; at ROS1, 7.72; at ALK, 9.21; on MET, 9.16. The “apoptosis (Annexin V and propidium iodide)” value with H3122 cells was “increased apoptosis”. For the same compound, on EML4-ALK E13;A20, the “phospho-ALK in 293 cells transfected with EML4-ALK E13;A20” value is on record as “greater reductions in phospho-ALK at lower concentrations of drug”. Further, the “inhibition of ALK kinase activity of four ALK fusions” value in [12] is “dose-dependent inhibition of ALK kinase activity”. In addition, the “differences in sensitivity among the four ALK variants” value in [12] (quantitative examination of immunoblots (data not shown)) is listed as “no major differences in sensitivity”. In addition, in the data set with H3122 xenografts (50mg/kg bid), the “growth of H3122 xenograft tumors vs vehicle” value is recorded as “significantly delayed the growth of tumors”. Moreover, the mouse weight result in the data set with H3122 xenografts (50mg/kg bid) is given as “unaffected”. In addition, in data set [5] (50mg/kg), the “plasma level at 2 hours after dosing” value was found to be 6.27 µM. Besides, the bioavailability in vivo entry in [5] was “substantial bioavailability”. For the same compound, the half-life in vivo result in [5] is given as “moderate half-lives”. For the same compound, the “brain penetration (brain tissue concentration as % of plasma level)” value in data set [13] (50mg/kg) is given as “less”. Moreover, on ALK, the “fold more potent against ALK compared to PF-1066” value is recorded as “approximately 10 fold”. Moreover, in [14] (50 mg/kg), the “increase of the liver enzymes AST and ALT at NST level” value was below 50%. Further, the “no significant toxicity (NST) level” value in data set [14] is 50 mg/kg.

For `C[C@@H]1CN(C(=O)c2ccc(NC(=O)c3cc(O[C@H](C)c4c(Cl)ccc(F)c4Cl)c(N)nn3)cc2)C[C@H](C)N1` [X-396], in data set [6] (setting [21]), the “cell growth of H3122, combination with rapamycin” value is “synergistic decrease of cell growth”. In data set [6], the “fold more potent than PF-1066 in H3122” value is reported as 10 fold. In addition, the pIC50 in data set [6] (setting [20]) is 7.82; in data set [7], 7.35; in data set [9], 8.05; in [10], 7.17; in [11], 6.81; in [1] (72h, Cell titer blue), 5.02. The pIC50 is 6.12 in [2] (72h, Cell titer blue); 5.52 in data set [3] (72h, Cell titer blue); below 5.52 in data set [4] (setting [19]); 7.66 in [15] (read-out: IC50 Ba/F3 + EML4-ALK E13;A20 WT, 72h, Cell titer blue); 6.97 in data set [16] (read-out: IC50 Ba/F3 + EML4-ALK E13;A20 L1196M, Cell titer blue); at least 7.00 in data set [16] (read-out: IC50 Ba/F3 EML4-ALK E13;A20 L1196M). The pIC50 in [17] (read-out: IC50 Ba/F3 + EML4-ALK E13;A20 C1156Y, Cell titer blue) is 7.32; in data set [17] (read-out: IC50 Ba/F3 EML4-ALK E13;A20 C1156Y), at least 7.00; at ALK, above 9.40; at MET it was 9.13. Moreover, in [7] (setting [21]), the “cell growth of H2228, combination with rapamycin” value is on record as “synergistic decrease of cell growth”. In addition, in [15] (growth inhibition), the “fold more potent than PF-1066 in Ba/F3 EML4-ALK E13;A20 wild-type” value is given as around 10 fold. In addition, the “phospho-ALK in 293 cells transfected with EML4-ALK E13;A20” value at EML4-ALK E13;A20 is recorded as “greater reductions in phospho-ALK at lower concentrations of drug”. Moreover, the “ALK autophosphorylation, L1196M” value at EML4-ALK E13;A20 L1196M is “significantly diminished”. The “ALK autophosphorylation, C1156Y” value at EML4-ALK E13;A20 C1156Y was “significantly diminished”. Besides, the “endogenous ALK phosphorylation in H3122” value in data set [18] is “inhibited ALK phosphorylation at lower concentrations of drug”. Also, the “growth of H3122 xenograft tumors vs vehicle” value in the data set on H3122 xenografts (25mg/kg bid) was “significantly delayed the growth of tumors”. In the data set on H3122 xenografts (25mg/kg bid), the mouse weight entry is reported as “unaffected”. Further, in data set [5] (25mg/kg), the “plasma level at 2 hours after dosing” value turned out to be 2.28 µM. In data set [5], the bioavailability in vivo result is recorded as “substantial bioavailability”. The half-life in vivo entry in data set [5] is recorded as “moderate half-lives”. Also, the “brain penetration (brain tissue concentration as % of plasma level)” value in data set [13] (25mg/kg) was determined as 13%. Besides, the “projected concentration in human brain” value in data set [13] (projection from mouse study at a human plasma level of ∼500nM) is “about 65 nM”. For the same compound, at ALK, the “fold more potent against ALK compared to PF-1066” value was “approximately 10 fold”. In data set [14] (80mg/kg), the “increase of the liver enzymes AST and ALT at NST level” value is recorded as below 50%. In data set [14], the “no significant toxicity (NST) level” value turned out to be 80 mg/kg.

Values taken from paper PMC3138877 (Cancer research, 2011).
